What all share (format): functional
Holding throughout (conditions): 120 h, read-out: GI

Experiment [1] relates to Brassica napus. Briefly: Herbicidal activity against Brassica napus (oilseed rape) assessed as inhibition of stalk growth at 100 mg/L using pre-emergence exposure protocol after 5 days.
Experiment [2] concerns Echinochloa crus-galli. Briefly: Herbicidal activity against Echinochloa crus-galli (barnyard grass) assessed as inhibition of root growth at 100 mg/L using pre-emergence exposure protocol after 5 days.
Experiment [3] concerns Echinochloa crus-galli. Briefly: Herbicidal activity against Echinochloa crus-galli (barnyard grass) assessed as inhibition of root growth at 10 mg/L using pre-emergence exposure protocol after 5 days.
Experiment [4] has as its system Echinochloa crus-galli. Briefly: Herbicidal activity against Echinochloa crus-galli (barnyard grass) assessed as inhibition of stalk growth at 10 mg/L using pre-emergence exposure protocol after 5 days.
The subject of experiment [5] is Brassica napus. Nature of the experiment: Herbicidal activity against Brassica napus (oilseed rape) assessed as inhibition of root growth at 100 mg/L using pre-emergence exposure protocol after 5 days.
Experiment [6] relates to Brassica napus. Nature of the experiment: Herbicidal activity against Brassica napus (oilseed rape) assessed as inhibition of root growth at 10 mg/L using pre-emergence exposure protocol after 5 days.
The subject of experiment [7] is Brassica napus. Briefly: Herbicidal activity against Brassica napus (oilseed rape) assessed as inhibition of stalk growth at 10 mg/L using pre-emergence exposure protocol after 5 days.
The subject of experiment [8] is Echinochloa crus-galli. Nature of the experiment: Herbicidal activity against Echinochloa crus-galli (barnyard grass) assessed as inhibition of stalk growth at 100 mg/L using pre-emergence exposure protocol after 5 days.

On to `Cc1onc(-c2ccccc2F)c1-c1csc(C2CCN(C(=O)Nc3ccccc3)CC2)n1`, for which the inhibition of growth at 100 µg/mL in the experiment with Brassica napus [1] was 72.7%; in the experiment on Echinochloa crus-galli [2], 84.8%; in the experiment on Brassica napus [5], 91.2%; in the experiment on Echinochloa crus-galli [8] it was 39%. In addition, the inhibition of growth at 10 µg/mL came to 56.5% in the experiment with Echinochloa crus-galli [3], 17.1% in the experiment on Echinochloa crus-galli [4], 56.2% in the experiment with Brassica napus [6] and 31.8% in the experiment on Brassica napus [7].
In the case of `Cc1onc(-c2ccccc2)c1-c1csc(C2CCN(C(=O)Nc3ccc(F)cc3)CC2)n1`, the inhibition of growth at 100 µg/mL with Brassica napus [1] worked out at 31.8%; with Echinochloa crus-galli [2], 87.1%; in the experiment on Brassica napus [5], 85.4%; with Echinochloa crus-galli [8] it was 17.7%. In addition, the inhibition of growth at 10 µg/mL in the experiment on Echinochloa crus-galli [3] is 54.8%; in the experiment with Echinochloa crus-galli [4] it was 0%; in the experiment on Brassica napus [6] it was 66.3%; in the experiment with Brassica napus [7], 0%.
Take `Cc1onc(-c2ccc(F)cc2)c1-c1csc(C2CCN(C(=O)NC(C)C)CC2)n1`: the inhibition of growth at 100 µg/mL in the experiment on Brassica napus [1] was 66.7%; in the experiment with Echinochloa crus-galli [2], 83.9%; with Brassica napus [5], 87.2%; in the experiment with Echinochloa crus-galli [8], 63.6%. Besides, the inhibition of growth at 10 µg/mL was found to be 54.8% with Echinochloa crus-galli [3], 47.7% with Echinochloa crus-galli [4], 68.8% in the experiment with Brassica napus [6] and 46.7% in the experiment on Brassica napus [7].
For `Cc1onc(-c2ccccc2F)c1-c1csc(C2CCN(C(=S)Nc3ccccc3)CC2)n1`, the inhibition of growth at 100 µg/mL with Brassica napus [1] amounted to 60%; in the experiment on Echinochloa crus-galli [2], 83.9%; in the experiment on Brassica napus [5] it was 92.7%; in the experiment on Echinochloa crus-galli [8] it was 59.1%. Further, the inhibition of growth at 10 µg/mL with Echinochloa crus-galli [3] turned out to be 48.4%; in the experiment with Echinochloa crus-galli [4] it was 45.5%; in the experiment with Brassica napus [6] it was 64.2%; in the experiment with Brassica napus [7], 43.3%.
Consider `Cc1onc(-c2ccccc2F)c1-c1csc(C2CCN(C(=O)NC(C)C)CC2)n1`, for which the inhibition of growth at 100 µg/mL is 54.5% in the experiment on Brassica napus [1], 73.9% in the experiment on Echinochloa crus-galli [2], 83.1% in the experiment on Brassica napus [5] and 14.6% in the experiment with Echinochloa crus-galli [8]. The inhibition of growth at 10 µg/mL with Echinochloa crus-galli [3] came out at 56.5%; in the experiment with Echinochloa crus-galli [4] it was 22%; in the experiment with Brassica napus [6], 68.5%; in the experiment on Brassica napus [7], 22.7%.
Consider `CCCCNC(=O)N1CCC(c2nc(-c3c(-c4ccc(F)cc4)noc3C)cs2)CC1`, for which the inhibition of growth at 100 µg/mL in the experiment on Brassica napus [1] was found to be 70%; in the experiment on Echinochloa crus-galli [2] it was 87.1%; in the experiment with Brassica napus [5], 88.1%; with Echinochloa crus-galli [8], 63.6%. Also, the inhibition of growth at 10 µg/mL in the experiment on Echinochloa crus-galli [3] is 71%; in the experiment on Echinochloa crus-galli [4], 56.8%; with Brassica napus [6], 67.8%; in the experiment with Brassica napus [7] it was 40%.
As to `COc1ccc(-c2noc(C)c2-c2csc(C3CCN(C(=O)Nc4ccccc4)CC3)n2)cc1`, the inhibition of growth at 100 µg/mL with Brassica napus [1] is 4.5%; with Echinochloa crus-galli [2], 76.1%; in the experiment with Brassica napus [5], 43.8%; with Echinochloa crus-galli [8], 24.6%. The inhibition of growth at 10 µg/mL in the experiment with Echinochloa crus-galli [3] was 45.7%; in the experiment on Echinochloa crus-galli [4] it was -22%; in the experiment with Brassica napus [6], 20.2%; with Brassica napus [7], -22.7%.
With `Cc1onc(-c2ccc(F)cc2)c1-c1csc(C2CCN(C(=O)Nc3ccc(F)cc3)CC2)n1`, the inhibition of growth at 100 µg/mL is 56.7% in the experiment on Brassica napus [1], 74.2% with Echinochloa crus-galli [2], 76.1% with Brassica napus [5] and 52.3% in the experiment on Echinochloa crus-galli [8]. Further, the inhibition of growth at 10 µg/mL came to 35.5% in the experiment with Echinochloa crus-galli [3], 50% in the experiment on Echinochloa crus-galli [4], 35.8% in the experiment on Brassica napus [6] and 6.7% in the experiment with Brassica napus [7].
For the molecule `Cc1onc(-c2ccc(F)cc2)c1-c1csc(C2CCN(C(=S)Nc3ccccc3)CC2)n1`, the inhibition of growth at 100 µg/mL in the experiment with Brassica napus [1] stood at 53.3%; with Echinochloa crus-galli [2], 87.1%; in the experiment with Brassica napus [5], 90.1%; in the experiment with Echinochloa crus-galli [8] it was 63.6%. Moreover, the inhibition of growth at 10 µg/mL in the experiment with Echinochloa crus-galli [3] stood at 48.4%; with Echinochloa crus-galli [4], 43.2%; with Brassica napus [6], 54.1%; in the experiment with Brassica napus [7], 6.7%.
Turning to `CCCCNC(=O)N1CCC(c2nc(-c3c(-c4ccccc4F)noc3C)cs2)CC1`, the inhibition of growth at 100 µg/mL is 70% in the experiment with Brassica napus [1], 90.3% in the experiment on Echinochloa crus-galli [2], 86.2% in the experiment with Brassica napus [5] and 63.6% with Echinochloa crus-galli [8]. In addition, the inhibition of growth at 10 µg/mL was found to be 58.1% in the experiment with Echinochloa crus-galli [3], 61.4% with Echinochloa crus-galli [4], 61.5% with Brassica napus [6] and 43.3% with Brassica napus [7].
`Cc1onc(-c2ccccc2F)c1-c1csc(C2CCN(C(=O)Nc3ccc(F)cc3)CC2)n1`: the inhibition of growth at 100 µg/mL in the experiment with Brassica napus [1] amounted to 66.7%; in the experiment with Echinochloa crus-galli [2], 80.6%; in the experiment with Brassica napus [5], 96.6%; in the experiment with Echinochloa crus-galli [8], 63.6%. The inhibition of growth at 10 µg/mL with Echinochloa crus-galli [3] amounted to 64.5%; in the experiment on Echinochloa crus-galli [4], 56.8%; with Brassica napus [6] it was 52.3%; with Brassica napus [7], 16.7%.
In the case of `Cc1onc(-c2ccc(Cl)cc2Cl)c1-c1csc(C2CCN(C(=O)Nc3ccc(F)cc3)CC2)n1`, the inhibition of growth at 100 µg/mL turned out to be 70% with Brassica napus [1], 83.8% with Echinochloa crus-galli [2], 90.3% in the experiment on Brassica napus [5] and 63.6% in the experiment with Echinochloa crus-galli [8]. Besides, the inhibition of growth at 10 µg/mL stood at 32.3% with Echinochloa crus-galli [3], 45.5% in the experiment on Echinochloa crus-galli [4], 34.9% in the experiment on Brassica napus [6] and 20.2% with Brassica napus [7].
As for `COc1ccc(-c2noc(C)c2-c2csc(C3CCN(C(=O)Nc4ccc(F)cc4)CC3)n2)cc1`, the inhibition of growth at 100 µg/mL was found to be 53.6% in the experiment with Brassica napus [1], 86.4% in the experiment on Echinochloa crus-galli [2], 81.3% in the experiment on Brassica napus [5] and 37% with Echinochloa crus-galli [8]. The inhibition of growth at 10 µg/mL was determined as 59.1% in the experiment on Echinochloa crus-galli [3], 34.8% with Echinochloa crus-galli [4], 46.9% with Brassica napus [6] and 14.3% in the experiment with Brassica napus [7].
Take `Cc1onc(-c2ccc(F)cc2)c1-c1csc(C2CCN(C(=O)Nc3ccccc3)CC2)n1`: the inhibition of growth at 100 µg/mL in the experiment on Brassica napus [1] was found to be 53.6%; with Echinochloa crus-galli [2], 95.5%; with Brassica napus [5], 83.3%; in the experiment on Echinochloa crus-galli [8] it was 56.5%. Moreover, the inhibition of growth at 10 µg/mL was 65.9% in the experiment on Echinochloa crus-galli [3], 39.1% in the experiment with Echinochloa crus-galli [4], 46.9% in the experiment with Brassica napus [6] and 25% in the experiment on Brassica napus [7].
With `Cc1onc(-c2ccccc2)c1-c1csc(C2CCN(C(=O)Nc3ccccc3)CC2)n1`, the inhibition of growth at 100 µg/mL with Brassica napus [1] turned out to be 70%; in the experiment with Echinochloa crus-galli [2], 78.3%; with Brassica napus [5], 80.4%; in the experiment with Echinochloa crus-galli [8], 63.6%. Moreover, the inhibition of growth at 10 µg/mL in the experiment with Echinochloa crus-galli [3] stood at 52%; in the experiment with Echinochloa crus-galli [4] it was 52.3%; in the experiment on Brassica napus [6], 51.4%; with Brassica napus [7], 30%.

The record behind these values is ChEMBL document CHEMBL3046673, “Synthesis and herbicidal activities of novel 4-(4-(5-methyl-3-arylisoxazol-4-yl)thiazol-2-yl)piperidyl carboxamides and thiocarboxamides” (Molecules, 2009).
